Data: US20260209301A1, “Galanin-2 Receptor Agonists” (LIFEARC, priority 2022, published 2026)
Read-outs that look alike come from different tables or passages of the source.

How the values were obtained:
GALR2 [1] = target: T1, GALR2 (Homo sapiens, UniProt O43603); assay: Calcium assay, CHO GalR2 cells (FLIPR); details: mean +/− standard deviation; for GalR2 Calcium, mean pEC50: Table 2, n ≥ 3; for GalR2 activity (calcium assay), warhead length: Table 6
T1 sequence (O43603 1-387): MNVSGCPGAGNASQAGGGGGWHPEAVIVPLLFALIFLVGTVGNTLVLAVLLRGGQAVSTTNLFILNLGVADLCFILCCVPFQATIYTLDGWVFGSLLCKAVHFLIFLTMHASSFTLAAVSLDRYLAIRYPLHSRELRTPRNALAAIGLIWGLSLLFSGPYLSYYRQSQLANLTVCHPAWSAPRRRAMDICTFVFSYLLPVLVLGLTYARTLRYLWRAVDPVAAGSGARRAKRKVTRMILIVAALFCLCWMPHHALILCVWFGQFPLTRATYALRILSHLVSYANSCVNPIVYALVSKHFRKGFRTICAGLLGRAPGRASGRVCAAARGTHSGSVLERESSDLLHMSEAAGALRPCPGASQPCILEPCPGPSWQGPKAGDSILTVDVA
Method: CHO GalR2 cells were plated at 10,000 cells per well in black clear bottom plates (corning, USA) and incubated overnight at 37° C. with 5% CO2. […] Ligands were prepared at a 5× concentration and added to cells using the FLIPR (Molecular Devices, USA). Baseline was typically 20 seconds before ligand addition. […] For analysis, fluorescence was normalised to pre-addition baseline and peak fluorescence used for all quantification.
In brief, a panel of functional cell-based microtiter-plate assays were developed using recombinant GalR1 and GalR2 receptors stably expressed in CHO cells. […] Nominally this equated to 10 serial (~3fold) dilutions with highest concentrations of 10-1 μM as appropriate.
In addition to generating both potency and efficacy estimates, the latter being expressed relative to native galanin, both G-protein and non-G-Protein signalling pathways were measured.

cynomolgus GalR2 = assay: Calcium assay at orthologue receptor; type: cell-based, Macaca fascicularis; details: Table 8; Calcium assays; mean +/− standard deviation
From the text: These species were chosen as they represent potential downstream in vivo models to be used. Within native galanin amino acid residues 1-15 are conserved across species, we would therefore expect the Gal FC fusions comprising amino acids 2 to 13 to retain GalR2 activity in these species. Calcium imaging was used to define receptor activity.

[2] = system: mouse CCI model of neuropathic pain; type: in vivo; details: for minimal effective dose (at 4 hrs): von Frey, 4 hrs post-dose
From the text: The Chronic Constriction Injury (CCI) model of neuropathic pain involves unilateral loose ligation of four ligatures around the left sciatic nerve at mid-thigh level spaced 1 mm apart (Chaplan S R, et al J Neurosci Methods. 1994 July; 53(1):55-63). This procedure results in the development of hyperalgesia, allodynia and spontaneous pain (ectopic discharges) which can be measured using mechanical and thermal behavioural assessments. […] The mouse CCI model of neuropathic pain differs from that of the rat by virtue of 3 ligatures around the sciatic nerve instead of 4.
Static mechanical tactile allodynia: Static mechanical (tactile) allodynia was assessed by measurement of withdrawal threshold using calibrated (force; g) von-Frey monofilaments (Touch-Test Sensory Evaluator; Scientific Marketing Associates) applied to the plantar surface of the hindpaw. The animals were placed in individual Perspex boxes on a raised metal mesh for 30-40 min before the test. A series of graduated von Frey hairs (0.07, 0.16, 0.4, 0.6 and 1 g) was applied in sequence with a protocol of 1 sec on 1 sec off repeated 10 times. Each hair was applied perpendicularly to the centre of the ventral surface of the paw until it bent slightly. The force applied to the hind-paw of the animal to induce 5 responses out of 10 trials was recorded as paw withdrawal threshold (PWT).
Baseline PWT was assessed on three consecutive days (Day-2, Day-1 and Day 0) and the mean of the last two readings used as the baseline withdrawal threshold.
On Day 1, neuropathic pain was induced via ligation of the sciatic nerve using three loose ligatures of prolene sutures (Chronic Constriction Injury). Under Isoflurane anaesthesia mixed with oxygen (3:1, 1 L/min) the left hind leg was shaved mid-thigh level and an incision made through the skin using a scalpel. The biceps femoris muscle layer was dissected by making an initial incision using a pair of sharp scissors, which was then widened using a pair of blunt scissors. The common sciatic nerve was exposed using a pair of forceps and 3 loose ligatures of prolene (7-0, Ethicon) were tied around the sciatic nerve with 1 mm spacing between each. The nerve was then returned below the muscle layer and the wound closed using absorbable sutures (Vicryl).
Von Frey assessment of mechanical allodynia was taken on days 19 and 22. Animals were then ranked and randomised (based on a Latin square design) to treatment groups according to the percentage change (compared to pre-surgery baseline) of the mean mechanical withdrawal threshold observed on days 19 and 22. Only those animals showing a PWT percentage change of >60% from pre-surgery baseline were included in the study.
Dosing took place on day 23 with either vehicle, test compound (i.p.) or Pregabalin (15 mg/kg p.o.) at 10 ml/kg. Allodynia was then assessed at intervals thereafter e.g. 2, 4 and 24 hours post dose. von Frey measurement continued until activity disappeared up to day 27.
For studies involving a repeat administration, dosing took place on day 23 with either vehicle, test compound (i.p.) or Pregabalin (15 mg/kg p.o.) at 10 mL/kg. Allodynia was then assessed at intervals thereafter e.g. 4, 24 and 48 hours post dose. Animals were re-dosed at 68, 116, 164, 212, 260, 308 hours, with von Frey measurements conducted 4 hrs after each administration. Allodynia was therefore measured at 72, 120, 168, 216, 264, and 312 hours post initial dose, equating to repeat dosing 2, 3, 4, 5, 6 and 7 times, respectively
Evaluation of study & Statistical analysis: vF withdrawal threshold (g) was assessed by a series of graduated von Frey hairs (0.07, 0.16, 0.4, 0.6 and 1 g) applied in sequence to the ipsilateral hindpaw with a protocol of 1 sec on 1 sec off repeated 10 times. Each hair was applied perpendicularly to the centre of the ventral surface of the paw until it bent slightly. […]

GALR2 [3] = target: T1, GALR2; assay: β-arrestin recruitment, PathHunter CHO-K1 GALR2 cells; type: cell-based; details: Table 2; mean +/− standard deviation, n ≥ 3
Method: Ligands were prepared at half log dilutions using cell plating reagent 2. 5 μl of each ligand was added to cells and plates incubated at 37° C. for 90 minutes. DiscoverX PathHunter detection kit (DiscoverX, USA) was added to cells as described my manufacturer's guidelines and plates incubated for 60 minutes at room temperature in the dark. Chemiluminescent signal was measured using the PHERAstar FS (BMG, Germany).

GALR3 = target: T2, GALR3 (Homo sapiens, UniProt O60755); assay: Luciferase reporter gene assay (SRE), HEK293 Gqi cells; type: cell-based
T2 construct: expressed in transfected cells; host or cells: genetically modified HEK293 Gqi cells, transient
T2 sequence (O60755 1-368): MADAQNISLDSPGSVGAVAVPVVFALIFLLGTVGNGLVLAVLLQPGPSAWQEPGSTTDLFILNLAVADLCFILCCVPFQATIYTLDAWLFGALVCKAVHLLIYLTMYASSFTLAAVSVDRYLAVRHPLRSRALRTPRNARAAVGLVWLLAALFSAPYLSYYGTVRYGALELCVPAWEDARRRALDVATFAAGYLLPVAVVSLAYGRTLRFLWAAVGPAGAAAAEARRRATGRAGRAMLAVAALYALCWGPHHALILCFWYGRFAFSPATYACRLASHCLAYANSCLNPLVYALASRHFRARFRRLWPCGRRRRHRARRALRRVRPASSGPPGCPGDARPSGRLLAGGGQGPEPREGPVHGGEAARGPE
Method: GalR3 activity was measured, alongside GalR1 and GalR2, using a luciferase reporter assay. A reporter plasmid and a receptor plasmid, were transiently transfected into the target cell line. The reporter plasmid contains a serum response element (SRE) or a nuclear factor of activated T-cells response element (NFAT-RE) which is coupled to a luciferase transcript and induces expression of the luciferase upon a specific G-protein (Gai uses SRE; Gaq uses NFAT-RE) activation. The target receptor is constantly expressed after cell transfection. For GALR1 and GALR3 screening, genetically modified HEK293 Gqi cells were transiently transfected with the SRE reporter and the receptor (GALR1 and GALR3) plasmids. For GALR2 screening, HEK293 cells were transiently transfected with the NFAT-RE reporter and the receptor (GALR2) plasmid. […] The luciferase activity was analyzed with the Bright-Glo Luciferase Assay (Promega) in an EnSpire plate reader.
Therefore, to measure activity at the GalR3 receptor a reporter gene assay was used. In this system MAP/ERK signalling is used to measure receptor activity. Activation of Gqi coupled receptors leads to downstream activation of ERK1/2. The activated ERK translocates to the nucleus where it phosphorylates and activates transcription factors, which lead to the binding of Serum response element (SRE). In this assay SRE activation induces expression of a luciferase reporter gene. […] To ensure this effect was not an artifact of the reporter gene assay, GalR1 and GalR2 reporter assays (using SRE and NFAT-RE respectively) were also run.

[4] = highest concentration tested 10 μM

Substance	GalR2 Calcium, mean pEC50 (GALR2 [1])	GalR2 activity (calcium assay), warhead length (GALR2 [1]; [4])	GalR2 activity (calcium assay), linker variants (GALR2 [1]; Table 7, highest concentration tested 10 μM)	Cynomolgus GalR2 activity (cynomolgus GalR2)	effect on withdrawal threshold, low dose ([2]; 0.03 mg/kg i.p., 4 hours)	effect on withdrawal threshold, low dose ([2]; 0.1 mg/kg, 24 hours)	effect-desensitisation on repeat administration ([2]; 0.3 and 1 mg/kg i.p., re-dosed days 3-13)	minimal effective dose (at 4 hrs) ([2]; mouse CCI) [mg/kg i.p.]	duration of statistically significant reversal of mechanical hyperalgesia ([2]; mouse CCI, highest and lowest doses tested)	Minimum Effective Dose [MED] ([2]; mouse CCI, multiple studies taken collectively) [mg/kg i.p.]	sustained reversal on repeat dosing, duration ([2]; mouse CCI, repeat dosing) [days]	minimal effective dose ([2]; mouse CCI, study with 1, 3, 10 and 30 mg/kg i.p.) [mg/kg i.p.]	sedation (observational during testing) ([2]; mouse, in vivo)	GalR2 Beta Arrestin, mean pEC50 (GALR2 [3])	activity at GalR3 (in words) (GALR3)	reversal of CCI-induced mechanical hyperalgesia ([2]; 3, 10 and 30 mg/kg i.p., 2 and 4 hrs)	effect on CCI-induced mechanical hyperalgesia at 24 hrs ([2]; 24 hrs, any of the doses tested (1-30 mg/kg i.p.))
Gal2-13FC: galanin 2-13, AEAAAKEAAAKA linker, human IgG1 FC; SEQ ID NO: 7	6.3 +/− 0.3	6.4 +/− 0.1	6.4 +/− 0.1	7.7 +/− 0.4	effective	statistically significant	no loss of effect	0.03	up to 96 hrs post-dose	≤ 0.03	≥ 13	≤ 1	not associated with overt sedation	6.7 +/− 0.2	no measurable activity	–	–
Gal2-30FC: galanin 2-30, AEAAAKEAAAKA linker, human IgG1 FC; SEQ ID NO: 28	6.6 +/− 0.3	6.8 +/− 0.1	–	8.4 +/− 0.1	–	–	–	3	–	–	–	–	–	7.3 +/− 0.2	no measurable activity	efficacious and reversed CCI-induced mechanical hyperalgesia	not at 24 hrs
